Results published in patent publication US20250009697A1, “COMPOSITION FOR INCREASING AMOUNT OF FOOD INGESTED AND/OR IMPROVING ANOREXIA, AND COMPOSITION FOR ACTIVATING TRANSIENT RECEPTOR POTENTIAL ANKYRIN 1” (HOUSE FOODS GROUP INC., priority 2021, published 2025).

What was measured:
[1] = Anorexia Improving Test 3: cumulative amounts of food ingested of mice, rhein with or without A-967079; type: in vivo; conditions: oral, rhein 100 μmol/kg body weight, A-967079 10 μmol/kg body weight
Experimental: Male ICR mice were housed in individual cages in which ALPHA-dri (Shepherd Specialty Papers) was laid, and were acclimatized and raised for at least one week or more while a powder feed (CE-2, CLEA Japan, Inc.) was given to the mice by using a powder feeder for mice (SN-950, Shinano Manufacturing Co., Ltd.). Then, for several days before the experiment, handling and oral administration training using a feeding needle (FG4202, Fuchigami Kikai Co., Ltd.) were conducted every day. To 9 week-old mice under ad libitum feeding conditions, a carrier solution (containing 2% of dimethyl sulfoxide and 98% of a 0.5% methyl cellulose solution in volume ratio) or a rhein solution (obtained by dissolving 8.53 mg of rhein in 1 mL of the carrier solution) was orally administered from 9:20 a.m. (10 mL/kg body weight). The dosage of rhein was 300 μmol/kg body weight in terms of molar concentration. Then, a feeder the mass of which had been measured in advance was set in the cage at 9:30 a.m. The masses of the feeder and the feed spilled in the cage 0.5, 1, 2, and 3 hours after the start of the feeding experiment were measured, and the ingested mass (g) at each time was measured (n=6). The ingested mass (g) of each mouse was measured in the same manner as in anorexia improving test 2 (the above item 5) except that 10 mL/kg body weight of a carrier solution, a rhein solution (100 μmol/kg body weight), an A-967079 solution (10 μmol/kg body weight), or a mixed solution of A-967079 and rhein (in 10 μmol/kg body weight and 100 μmol/kg body weight, respectively) was orally administered to the mouse. Results obtained by calculating the cumulative amounts of food ingested and conducting a multiple comparison (multiple t-test) by the Dunn-Bonferroni method are shown in Table 12.

Human TRPA1 (hTRPA1) [2] = target: T1, Human TRPA1 (hTRPA1) (Homo sapiens, UniProt O75762); assay: TRPA1 Activation Test 2: intracellular Ca2+ imaging assay 2-1 to 2-3, hTRPA1 stably expressing cell line; type: cell-based; conditions: for TRPA1 activation rates: Table 10; for Concentration dependence of TRPA1 activity (in words): additional experiments; for TRPA1 activating action (in words): hTRPA1 stably expressing cell line; for TRPA1 activation rate, With antagonist / TRPA1 activation rate, Without antagonist: Table 11
T1 construct: expressed in transfected cells
Experimental: (§1) DNAs encoding genes described in the following Table 2 were inserted into pcDNA 5/TO vector (Invitrogen) to prepare various expression vectors.
(§2) These expression vectors were transfected into T-REx™_293 cells (Invitrogen) by a conventional method using Lipofectamine LTX (Invitrogen). Then, various transfectants were cultured and cloned by a conventional method using Dulbecco's Modified Eagle Medium (DMEM, Nacalai Tesque Inc.), containing 10% fetal bovine serum (FBS, Cytiva), […] of hygromycin B, and 5 μg/mL of blasticidin S, as a drug selection medium to obtain a hTRPA1 stably expressing cell line, a hTRPV1 stably expressing cell line, and a hTRPM8 stably expressing cell line.
(§3) A hTRPA1 stably expressing cell line in which expression of hTRPA1 had been induced in advance by a conventional method was prepared in a 96 well clear bottom plate, and the hTRPA1 activating action of rhein (produced by Tokyo Chemical Industry Co., Ltd.) was tested. Specifically, after each well was washed with PBS, 50 μL of an assay buffer (Hanks' balanced salt solution containing no calcium ion or magnesium ion that contained 1 mM of CaCl2 dihydrate, 20 mM of HEPES, and 0.1% BSA) containing calcium fluorescent indicator Calbryte™ 520 AM (produced by AAT Bioquest) in a final concentration of 4 μM was added, followed by incubating at 33° C. for 45 minutes. After washing with the assay buffer, 100 μL of the assay buffer was added to each well. This plate was set to FlexStation 3 (Molecular Devices, LLC), and a fluorescence intensity (excitation wavelength 490 nm, fluorescence wavelength 525 nm) at 31° C. was measured every two seconds, and 30 seconds after the start of the measurement, 100 μL of an assay buffer containing a test sample (allyl isothiocyanate (AITC) of positive control or rhein) which was prepared to have a certain final concentration or DMSO was added. Then, a well in which an assay buffer containing ionomycin (having a final concentration of 10 μM after the addition) instead of the test samples was added was also prepared as a reference for fluorescence intensity.
(§4) The measurement was continued from the start of the measurement up to 120 seconds, and the TRPA1 activation ability of the test samples was calculated in accordance with the following formula.
(§5) Activation rate (%)=(Fmax[s]−F0)/(Fmax[i]−F0)×100 • Fmax[s]: The maximum value of the fluorescence intensity when the test sample or positive control was added • F0: The average value of the fluorescence intensity for 20 seconds after the start of the measurement (base line) • Fmax[i]: The maximum value of the fluorescence intensity when ionomycin was added
The TRPA1 activation ability of each test sample was measured in the same manner as in the above (2) except the test was conducted with A-967079 (1 μM), which is a TRPA1-specific antagonist, or without A-967079. In addition, intracellular Ca^2+ imaging assay was conducted in the same manner as in the above (2) except that a hTRPV1 stably expressing cell line, a hTRPM8 stably expressing cell line, or a Mock cell was used instead of the hTRPA1 stably expressing cell line. Note that capsaicin was used as positive control for the hTRPV1 stably expressing cell line, and icilin was used as positive control for the hTRPM8 stably expressing cell line.
A TRPA1 activation ability was measured in the same manner as in the above (2) by using, as a test sample, rhein or compounds described in the following Table 10, which had anthraquinone structures similar to rhein, at a concentration of 200 μM of the test sample.

Human TRPA1 (hTRPA1) [3] = target: T1, Human TRPA1 (hTRPA1); assay: TRPA1 Activation Test 1: intracellular Ca2+ imaging assay 1-1 to 1-3, hTRPA1 stably expressing cell line; type: cell-based; conditions: for TRPA1 activating action with TRPA1-specific antagonist (in words) / TRPA1 activation rate, With antagonist: A-967079 1 μM; for TRPA1 activating action (in words): hTRPA1 stably expressing cell line; for TRPA1 activation rate, With antagonist / TRPA1 activation rate, Without antagonist: Table 6
Experimental: as §1, §2
as §3, with “bottom plate (black),” for “bottom plate,”, “and a” for “and the”, “of the purified oxylipin or the R2 fraction (both were assumed to contain a compound having a molecular weight of 294) obtained in the above item 1” for “of rhein (produced by Tokyo Chemical Industry Co., Ltd.)”, “calcium ions” for “calcium ion”, “magnesium ions” for “magnesium ion”, “sample” for “sample (allyl isothiocyanate (AITC) of positive control or rhein)”
as §4
as §5, with “sample or the positive control” for “sample or positive control”
The TRPA1 activation ability was measured in the same manner as in the above (2) except that the R2 fraction or allyl isothiocyanate (AITC) was used as a test sample and the test was conducted with A-967079 (1 μM), which is a TRPA1-specific antagonist, or without A-967079. In addition, regarding the R2 fraction, the hTRPV1 stably expressing cell line or the hTRPM8 stably expressing cell line was used instead of the hTRPA1 stably expressing cell line to conduct the same test. Note that as positive controls, capsaicin was used for the hTRPV1 stably expressing cell line and icilin was used for the hTRPM8 stably expressing cell line.
The TRPA1 activation ability was measured in the same manner as in the above (2) except that each isolated compound or allyl isothiocyanate (AITC) was used as a test sample and the test was conducted with A-967079 (1 μM), which was a TRPA1-specific antagonist, or without A-967079.

T1 sequence (O75762 whole entry): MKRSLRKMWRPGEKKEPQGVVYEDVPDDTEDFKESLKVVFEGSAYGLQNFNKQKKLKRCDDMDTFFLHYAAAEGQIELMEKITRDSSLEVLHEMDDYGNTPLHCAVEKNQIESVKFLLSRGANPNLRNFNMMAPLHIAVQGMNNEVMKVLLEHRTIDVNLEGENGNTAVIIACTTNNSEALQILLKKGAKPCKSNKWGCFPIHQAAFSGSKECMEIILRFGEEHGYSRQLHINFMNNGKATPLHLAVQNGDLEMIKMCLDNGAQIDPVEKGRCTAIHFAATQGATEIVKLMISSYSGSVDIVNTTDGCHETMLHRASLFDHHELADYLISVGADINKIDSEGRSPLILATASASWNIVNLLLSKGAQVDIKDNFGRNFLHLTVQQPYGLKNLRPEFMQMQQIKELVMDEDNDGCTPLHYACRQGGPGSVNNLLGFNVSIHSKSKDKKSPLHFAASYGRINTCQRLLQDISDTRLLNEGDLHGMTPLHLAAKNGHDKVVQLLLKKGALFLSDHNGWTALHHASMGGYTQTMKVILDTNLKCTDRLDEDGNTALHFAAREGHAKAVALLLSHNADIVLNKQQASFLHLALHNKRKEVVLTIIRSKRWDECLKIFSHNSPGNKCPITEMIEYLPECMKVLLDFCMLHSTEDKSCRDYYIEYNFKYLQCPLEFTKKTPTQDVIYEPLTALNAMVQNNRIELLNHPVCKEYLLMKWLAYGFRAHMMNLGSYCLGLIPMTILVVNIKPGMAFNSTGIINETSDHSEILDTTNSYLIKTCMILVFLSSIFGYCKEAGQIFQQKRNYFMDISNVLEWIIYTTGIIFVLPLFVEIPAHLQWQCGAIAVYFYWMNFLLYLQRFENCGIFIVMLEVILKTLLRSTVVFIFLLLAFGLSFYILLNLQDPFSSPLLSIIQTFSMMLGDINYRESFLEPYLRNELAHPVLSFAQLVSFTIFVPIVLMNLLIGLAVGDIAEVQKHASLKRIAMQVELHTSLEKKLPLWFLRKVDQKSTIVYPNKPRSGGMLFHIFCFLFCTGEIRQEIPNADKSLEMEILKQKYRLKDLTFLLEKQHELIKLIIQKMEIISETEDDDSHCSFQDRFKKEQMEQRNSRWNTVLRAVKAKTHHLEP

CCC(=N\O)/C(C)=C/c1ccc(F)cc1 [Compound A-967079, reference compound]
Cumulative amounts of food ingested of mice ([1]; 0.5 hour after the administration): 0.026 ± 0.0093 g | Cumulative amounts of food ingested of mice ([1]; 1 hour after the administration): 0.042 ± 0.015 g | Cumulative amounts of food ingested of mice ([1]; 2 hours after the administration): 0.088 ± 0.027 g | Cumulative amounts of food ingested of mice ([1]; 3 hours after the administration): 0.20 ± 0.066 g

O=C1c2cccc(O)c2C(=O)c2cccc(O)c21 [Anthrarufin, reference compound]
TRPA1 activation rates (Human TRPA1 (hTRPA1) [2]; test sample 200 μM): 0.587 ± 0.0172%

CCC(O)/C=C/C=C\C/C=C\CCCCCCCC(=O)O (stereo not drawn) [Compound R2-2]
TRPA1 activating action with TRPA1-specific antagonist (in words) (Human TRPA1 (hTRPA1) [3]): inhibited by the TRPA1-specific antagonist | TRPA1 activating action (in words) (Human TRPA1 (hTRPA1) [3]): exhibited the TRPA1 activating action | TRPA1 activation rate, With antagonist (Human TRPA1 (hTRPA1) [3]; test sample 200 μM): 0.71 ± 0.0743% | TRPA1 activation rate, Without antagonist (Human TRPA1 (hTRPA1) [3]; test sample 200 μM): 21.6 ± 5.63% | TRPA1 activation rate, With antagonist (Human TRPA1 (hTRPA1) [3]; test sample 500 μM): 1.96 ± 0.548% | TRPA1 activation rate, Without antagonist (Human TRPA1 (hTRPA1) [3]; test sample 500 μM): 77.5 ± 0.988%

Cc1cc(O)c2c(c1)C(=O)c1cccc(O)c1C2=O [Chrysophanol, reference compound]
TRPA1 activation rates (Human TRPA1 (hTRPA1) [2]; test sample 200 μM): 3.27 ± 0.439%

CC/C=C/CC(O)/C=C/C=C\CCCCCCCC(=O)O (stereo not drawn) [Compound R1-2]
TRPA1 activating action with TRPA1-specific antagonist (in words) (Human TRPA1 (hTRPA1) [3]): inhibited by the TRPA1-specific antagonist | TRPA1 activating action (in words) (Human TRPA1 (hTRPA1) [3]): exhibited the TRPA1 activating action | TRPA1 activation rate, With antagonist (Human TRPA1 (hTRPA1) [3]; test sample 200 μM): 1.75 ± 0.443% | TRPA1 activation rate, Without antagonist (Human TRPA1 (hTRPA1) [3]; test sample 200 μM): 32.0 ± 1.40% | TRPA1 activation rate, With antagonist (Human TRPA1 (hTRPA1) [3]; test sample 500 μM): 8.24 ± 1.13% | TRPA1 activation rate, Without antagonist (Human TRPA1 (hTRPA1) [3]; test sample 500 μM): 95.9 ± 1.79%

Cc1cc(O)c2c(c1)C(=O)c1cc(O)cc(O)c1C2=O [Emodin, emodin]
TRPA1 activating action with TRPA1-specific antagonist (in words) (Human TRPA1 (hTRPA1) [2]; A-967079): inhibited by A-967079 | Concentration dependence of TRPA1 activity (in words) (Human TRPA1 (hTRPA1) [2]): exhibited TRPA1 activity in concentration dependent manner | TRPA1 activating action (in words) (Human TRPA1 (hTRPA1) [2]): exhibited TRPA1 activating actions | TRPA1 activation rate, With antagonist (Human TRPA1 (hTRPA1) [2]; test sample 100 μM, A-967079): 0.881 ± 0.134 % | TRPA1 activation rate, Without antagonist (Human TRPA1 (hTRPA1) [2]; test sample 100 μM): 49.4 ± 1.41% | TRPA1 activation rate, With antagonist (Human TRPA1 (hTRPA1) [2]; test sample 200 μM, A-967079): 2.96 ± 0.246 % | TRPA1 activation rates (Human TRPA1 (hTRPA1) [2]; test sample 200 μM): 43.1 ± 1.72% | TRPA1 activation rate, Without antagonist (Human TRPA1 (hTRPA1) [2]; test sample 200 μM): 64.8 ± 3.73% | TRPA1 activation rate, With antagonist (Human TRPA1 (hTRPA1) [2]; test sample 400 μM, A-967079): 6.25 ± 1.70 % | TRPA1 activation rate, Without antagonist (Human TRPA1 (hTRPA1) [2]; test sample 400 μM): 71.29 ± 1.08%

O=C1c2cccc(O)c2C(=O)c2c(O)cccc21 [Dantron, reference compound]
TRPA1 activation rates (Human TRPA1 (hTRPA1) [2]; test sample 200 μM): 4.72 ± 0.762%

aloe-emodin
Concentration dependence of TRPA1 activity (in words) (Human TRPA1 (hTRPA1) [2]): exhibited TRPA1 activity in concentration dependent manner | TRPA1 activating action (in words) (Human TRPA1 (hTRPA1) [2]): exhibited TRPA1 activating actions | TRPA1 activation rates (Human TRPA1 (hTRPA1) [2]; test sample 200 μM): 15.3 ± 0.743%

O=C(O)c1cc(O)c2c(c1)[C@H]([C@H]1c3cc(C(=O)O)cc(O)c3C(=O)c3c(O[C@@H]4O[C@H](CO)[C@@H](O)[C@H](O)[C@H]4O)cccc31)c1cccc(O[C@@H]3O[C@H](CO)[C@@H](O)[C@H](O)[C@H]3O)c1C2=O [Sennoside A, reference compound]
TRPA1 activation rates (Human TRPA1 (hTRPA1) [2]; test sample 200 μM): 3.33 ± 0.705%

CC/C=C\C/C=C\C=C\C(O)CCCCCCCC(=O)O (stereo not drawn) [Compound R3]
TRPA1 activating action with TRPA1-specific antagonist (in words) (Human TRPA1 (hTRPA1) [3]): inhibited by the TRPA1-specific antagonist | TRPA1 activating action (in words) (Human TRPA1 (hTRPA1) [3]): exhibited the TRPA1 activating action | TRPA1 activation rate, With antagonist (Human TRPA1 (hTRPA1) [3]; test sample 200 μM): 0.58 ± 0.0564% | TRPA1 activation rate, Without antagonist (Human TRPA1 (hTRPA1) [3]; test sample 200 μM): 16.3 ± 0.812% | TRPA1 activation rate, With antagonist (Human TRPA1 (hTRPA1) [3]; test sample 500 μM): 0.731 ± 0.237% | TRPA1 activation rate, Without antagonist (Human TRPA1 (hTRPA1) [3]; test sample 500 μM): 93.6 ± 1.92%

physcion
Concentration dependence of TRPA1 activity (in words) (Human TRPA1 (hTRPA1) [2]): exhibited TRPA1 activity in concentration dependent manner | TRPA1 activating action (in words) (Human TRPA1 (hTRPA1) [2]): exhibited TRPA1 activating actions | TRPA1 activation rates (Human TRPA1 (hTRPA1) [2]; test sample 200 μM): 24.3 ± 0.760%
